Measured values: US20060008858A1, “Osteoblast factor(s) that regulates human prostate cancer migration to and invasion of bone” (The Regents of the University of Michigan, priority 2004, published 2006)

System: LNCaP-C4-2B and VCaP human CaP cells
Experiment: Chemotaxtic migration assay (cell culture inserts)
Type: cell-based
Conditions: osteoblast-secreted proteins evaluated in migration assays; FIG. 2
Procedure: Conditioned medium from human primary pre-osteoblast cells was prepared by plating 5×10^5 cells in 10 ml culture medium (10% FBS DMEM medium) to 100 mm tissue culture dishes. Following 24 hrs to allow for adherence, the medium was removed and the cells washed three times with 10 ml/dish PBS. Washed cells were then incubated 72 hrs in 10 ml/dish serum-free DMEM medium supplemented with 1% (v/v) ITS+(Becton Dickenson, Bedford. Mass.) Medium collected after 72 hrs was filtered through 0.2 μm filter and used directly in in vitro invasion and migration assays with human prostate cancer cells.
Chemotaxtic migration assays were performed as described with modifications (Jeffers et al., 1996). Briefly, cells were harvested with trypsin, washed once with serum-free medium, and resuspended in serum-free DMEM medium to a concentration of 5×10^4 viable cells/ml. 25,000 cells/0.5 ml were then added to 24-well cell culture inserts with a […] pore size (Becton Dickinson, Bedford, Mass.). The inserts were placed in wells containing 0.5 ml of serum-free DMEM, 72 hr serum-free conditioned medium from human primary osteoblasts and incubated for 48 hrs in 5% CO2-95% air at 37° C. […] The total number of invading cells/filter was quantified under 10× magnification. […]

Substance | effect on CaP cell migration
IL-6: osteoblast-secreted protein, interleukin 6 | stimulatory
basic Fibroblast Growth Factor: osteoblast-secreted protein, basic fibroblast growth factor | stimulatory
